Key:
HaCaT cells = type: cell-based; settings: 48 h, MTT
Method: HaCaT cells (CLS Cell Lines Service, Germany) were cultured in Dulbecco's modified eagle medium (DMEM) medium supplemented with 4.5 g/L glucose, 2 mM L-glutamine and 10% fetal bovine serum. Cells were seeded on 24- or 12-well plates and grown to 80% confluence for the following assays.
Exponentially growing cells of passage #3-6 (3000 cells/well in 100 μl medium) were plated in 96-well plates overnight to allow cell attachment (80% confluency) and then exposed to different concentrations of diacerein (0.1, 1, 10 μM) or berberine (0.1, 1, 10 μM) or clobetasol propionate (0.1, 1, 10 μM), and either 2 mg/mL of Healthy-IgG BP-IgG or Specific-IgG at 37° C. for 48 h.
Following drug treatment, the cell culture media were gently removed. Cells were then gently washed three times with warm medium to remove any de-attached and dead cells. Cells were incubated with MTT reagent in cell culture medium at a final concentration of 1.0 mg/mL for 2 h. The quantity of formazan (presumably directly proportional to the number of viable cells) was measured by recording changes in absorbance at 570 nm using an ELISA plate reader.

IL-6 mRNA = experiment: Quantitation of IL-6 mRNA expression by quantitative real-time PCR; type: cell-based, human; settings: BP IgG-treated HaCaT cells; 0.1, 1, 10 μM; 48 h; RT-qPCR normalized to GAPDH
Method: (§1) IL-6 and IL-8 messenger RNA (mRNA) levels were quantitated using quantitative real-time polymerase chain reaction (qPCR) as reported previously. BP IgG-treated HaCaT cells were cultured with or without diacerein or berberine or clobetasol propionate for 48 h. Total RNA was isolated from cultured HaCaT cells using TRIzol reagent (LifeTechnologies) according to the manufacturer's instruction. Complementary DNA (cDNA) was reverse-transcribed from isolated RNA by incubating 1 μg of RNA with the RevertAid First Strand cDNA Synthesis Kit (Thermo Scientific) following the manufacturer's instructions. Quantitative RT-PCR was performed in a Mastercycler (Eppendorf) using SYBR® Select Master Mix (Life Technologies). PCR mixtures contained 0.5 μM of each forward and reverse primers. Each reaction mixture was subjected to 2 min at 50° C. and 2 min at 95° C. followed by 40 cycles with 15 seconds at 95° C. and 1 min at 60° C. Data were normalized to the housekeeping gene glyceraldehyde-3-phosphate dehydrogenase (GAPDH). The primers used in RT-PCR were as follows: IL-8 messenger RNA (mRNA), forward, 5′-ACCGGAAGGAACCATCTCAC-3′, and reverse, 5′-AAACTGCACCTTCACACAGAG-3′ and IL-6 messenger RNA (mRNA), forward, 5′-GGTACATCCTCGACGGCATCT-3′, and reverse, 5′-GTGCCTCTTTGCTGCTTTCAC-3′ and GAPDH, forward, 5′-ACAACTTTGGTATCGTGGAAGG-3′, and reverse, 5′-GCC ATC ACG CCA CAG TTT-3′.

IL-8 mRNA = experiment: Quantitation of IL-8 mRNA expression by quantitative real-time PCR; type: cell-based, human; settings: BP IgG-treated HaCaT cells; 0.1, 1, 10 μM; 48 h; RT-qPCR normalized to GAPDH
Method: as §1

IL-6 = experiment: Pro-inflammatory cytokine measurement: IL-6 in culture supernatant by ELISA; type: cell-based, human; settings: HaCaT cells treated with BP-IgG or specific anti-BP180 IgG 2 mg/mL; 0.1, 1, 10 μM; 48 h
Method: (§2) HaCaT cells (CLS Cell Lines Service, Germany) were cultured in Dulbecco's modified eagle medium (DMEM) medium supplemented with 4.5 g/L glucose, 2 mM L-glutamine and 10% fetal bovine serum. Cells were seeded on 24- or 12-well plates and grown to 80% confluence for the following assays. Cytokine measurement was conducted based on previous studies. Briefly, cells were incubated with medium alone or with 2 mg/mL purified BP-IgG or Specific-IgG and cultured in absence or presence of diacerein or berberine or clobetasol propionate (0.1, 1, and 10 μM) and culture supernatants were collected after 48 h of incubation, and stored for analysis at −20° C. IL-6 and IL-8 levels were analyzed in cell culture supernatants by ELISA (BD Biosciences) according to the manufacturer's instructions.

IL-8 = experiment: Pro-inflammatory cytokine measurement: IL-8 in culture supernatant by ELISA; type: cell-based, human; settings: 48 h
Method: as §2

BP180 = experiment: Immunofluorescence study of BP180 internalization in keratinocytes treated with BP-IgG; type: cell-based, human; settings: 0.1 to 10 μM, confocal microscopy
Method: For this BP180 internalization study, IgG purification from BP patients and cell culture treated with different IgG and drugs (diacerein or berberine) were performed according to the procedures described in Example 1. Keratinocytes grown on glass coverslips were fixed in 4% paraformaldehyde, washed thoroughly in PBS, and permeabilized in 0.1% (v/v) Triton X-100 in PBS for 10 minutes. Primary antibodies were overlaid onto the cells, and the preparations were incubated at room temperature for 1 hour. The cells on coverslips were washed with PBS, and fluorescence-conjugated secondary antibodies were applied for 1 hour at room temperature. After being washed with PBS, coverslips were mounted onto slides. The fluorescence color for cell nucleus was dark blue and BP180 was bright green. All preparations were examined by the confocal microscopy.

| Compound | cytotoxicity to HaCaT cells (HaCaT cells; treatment at 0.1-10 μM) | IL-6 mRNA expression levels (IL-6 mRNA) | IL-8 mRNA expression levels (IL-8 mRNA) | secretion of IL-6 (IL-6) | secretion of IL-8 (IL-8; HaCaT cells treated with BP-IgG or Specific-IgG 2 mg/mL, 0.1, 1, 10 μM) | membranous localization of BP180 (BP180 internalization) (BP180) | secretion of IL-8 (IL-8; 0.1 μM, HaCaT cells treated with specific anti-BP180 IgG) | secretion of IL-8 (IL-8; 1 or 10 μM, HaCaT cells treated with specific anti-BP180 IgG) | HaCaT viability in presence of IgG (HaCaT cells; 10 μM, with Healthy-IgG, BP-IgG or BP Specific-IgG) | HaCaT viability (HaCaT cells; treatment at 0.1-10 μM) [%] |
| --- | --- | --- | --- | --- | --- | --- | --- | --- | --- | --- |
| COc1ccc2cc3[n+](cc2c1OC)CCc1cc2c(cc1-3)OCO2 [berberine, 5,6-dihydro-9,10-dimethoxybenzo(g)-1,3-benzodioxolo (5,6-a) quinolizinium] | did not have significant cytotoxicity | – | – | – | – | – | – | – | – | – |
| CCC(=O)O[C@]1(C(=O)CCl)[C@@H](C)C[C@H]2[C@@H]3CCC4=CC(=O)C=C[C@]4(C)[C@@]3(F)[C@@H](O)C[C@@]21C [clobetasol propionate] | did not have significant cytotoxicity | significantly reduced the IL-6 and IL-8 mRNA expression levels | significantly reduced the IL-6 and IL-8 mRNA expression levels | reduced IL-6 (FIG. 1a) and IL-8 secretion (FIG. 1b) in a dose-dependent manner | reduced IL-6 (FIG. 1a) and IL-8 secretion (FIG. 1b) in a dose-dependent manner | – | – | – | – | – |
| CC(=O)Oc1cccc2c1C(=O)c1c(OC(C)=O)cc(C(=O)O)cc1C2=O [diacerein, 4,5-bis (acetyloxy) 9, 10-dihydro-4,5-dihydroxy-9, 10-dioxo-2-anthracenecarboxylic acid] | significant cytotoxicity | dose-dependent inhibitory effects on IL-6 mRNA expression levels | inhibitory effects on IL-8 mRNA only at 10 μM | significantly reduced secretion of IL-6 | – | membranous localization of BP180 was restored | did not reduce the secretion of IL-8 | inhibitory effects of diacerein on IL-8 secretion were noted only at concentrations at 1 or 10 μM | still significantly reduced HaCaT viability | 50 |
